Patent publication US20130150317A1, “COMPOUNDS FOR THE TREATMENT OF RENAL CELL CARCINOMA” (Myrovlytis Technology Ventures Limited, priority 2010, published 2013)

Tests used:
[1] = test system: caspase3 in UOK257-FLCN^− cells; assay: Western blot of cellular caspase3 protein after mithramycin; type: cell-based, human; details: mithramycin 25, 50, 100, 200 nM, 48 hours
Method: Cellular protein expression in UOK Cells with/without FLCN expression in response to drug exposure was determined using total cell extracts at 48 h after treatment, according to standard procedures. Protein concentration was determined using DC protein assay kit according to the manufacturer's instructions (Bio-Rad Laboratories Ltd, Hertfordshire, United Kingdom). Twenty […] of protein from each sample was electrophoresed on 12.5% (w/v) SDS-PAGE gels and electroblotted on to nitrocellulose membrane (Amersham Pharmacia Biotech UK Ltd., Buckinghamshire, United Kingdom). Antibody against FLCN (a gift from Prof. Arnim Pause, Rosalind and Morris Goodman Cancer Centre Montreal, Canada), caspase3 (Cell Signalling Technology, Hertfordshire, United Kingdom), and actin (Sigma-Aldrich Company Ltd., Dorset, United Kingdom) were used. The signal was detected using the enhanced chemiluminescence (ECL+Plus, Amersham) system after addition of anti-mouse IgG-HRP conjugate (DAKO, Ely, United Kingdom).

UOK257-FLCN^+ cells = assay: Clonogenic cell survival assay in UOK257-FLCN^+ cells; type: cell-based, human; details: 72 hrs exposure
From the text: Colonies with over 30 cells were counted.

[2] = test system: 786-O cells with mutant VHL; assay: SRB growth inhibition in 786-O cells with mutant VHL; type: cell-based, human
From the text: (§1) Human renal carcinoma of BHD origin cells UOK-257 (UOK-FLCN^−) and FLCN transfected UOK-257 cells UOK-FLCN^+ (Yang et al Cancer Genet Cytogenet. 2008 Jan. 15; 180(2):100-9) were provided by Dr Marston Linehan and Dr. Laura S Schmidt (Urologic Oncology Branch, Centre for Cancer Research, National Cancer Institute, National Institutes of Health, Bethesda, Md. 20892, USA). UOK-257 is the only RCC cell line that has been derived from a patient with BHD and harbours a germline FLCN frameshift mutation (c.1285dupC) (predicted, in the absence of nonsense mediated mRNA decay, to lead to premature protein truncation (p.His429ProfsX27) (Yang et al., Cancer Genet Cytogenet, 2008 Jan. 15; 180(2):100-9). We are not aware of any sporadic RCC cell lines with homozygous FLCN inactivation. FTC-133 cells were purchased from ECACC (Salisbury, United Kingdom). These cells are a non-RCC cell line derived from human thyroid carcinoma. 786-0 cells were available from the author's lab (Clifford et al., Hum Mol Genet. 2001 May 1; 10(10):1029-38). 786-O is a kidney cancer cell line that harbours an inactivating VHL gene mutation (c.311delG p.G104fs*55). All cell lines were cultured in DMEM with supplement of 10% foetal bovine serum except for FTC-133 cells which were incubated in medium with DMEM and Hens (1:1).
The sensitivity of the cell lines to drug-induced cell growth inhibition was determined using the sulphorhodamine B assay (SRB) as described by Lu et al., Clin Cancer Res. 2001:7:2114-23. Briefly, adherent exponentially growing cells were seeded into 96-well plates at 3-5×10^3 cells/100 μl/well. After 20-24 h at 37° C., drugs were added at the appropriate drug concentrations to the wells (final DMSO conc. 1%) as indicated in the Results section. […] The absorbance per well was measured at 570 nm on a Victor X3 Multilabel Plate Reader (PerkinElmor, Beaconsfield, United Kingdom).
Cells were exposed continuously to various concentrations of drugs for 72 hours. GI50 values were determined as the concentrations at 50% growth inhibition from at least three experiments.

[3] = test system: 786-O cells expressing wt VHL; assay: SRB growth inhibition in 786-O cells expressing wt VHL; type: cell-based; details: Homo sapiens, 786-0; SRB assay, 72 hours
From the text: as §1, with “786-O is a kidney cancer cell line that harbours an inactivating VHL gene mutation (c.311delG p.G104fs*55). All cell lines were cultured in DMEM with supplement of 10% foetal bovine serum except for FTC-133 cells which were incubated in medium with DMEM and Hens (1:1).” left out
(§2) The sensitivity of the cell lines to drug-induced cell growth inhibition was determined using the sulphorhodamine B assay (SRB) as described by Lu et al., Clin Cancer Res. 2001:7:2114-23. […] The absorbance per well was measured at 570 nm on a Victor X3 Multilabel Plate Reader (PerkinElmor, Beaconsfield, United Kingdom). […]

[4] = test system: FTC-133 cells with FLCN expressed at low levels; assay: SRB growth inhibition in FTC-133 cells, low FLCN expression; type: cell-based; details: Homo sapiens, SRB assay
From the text: as §1, with “786-O is a kidney cancer cell line that harbours an inactivating VHL gene mutation (c.311delG p.G104fs*55). All cell lines were cultured in DMEM with supplement of 10% foetal bovine serum except for FTC-133 cells which were incubated in medium with DMEM and Hens (1:1).” left out
as §2

[5] = test system: FTC-133 cells with FLCN expressed at high levels; assay: SRB growth inhibition in FTC-133 cells, high FLCN expression; type: cell-based; details: Homo sapiens, SRB assay
From the text: as §1, with “786-O is a kidney cancer cell line that harbours an inactivating VHL gene mutation (c.311delG p.G104fs*55). All cell lines were cultured in DMEM with supplement of 10% foetal bovine serum except for FTC-133 cells which were incubated in medium with DMEM and Hens (1:1).” left out
as §2

UOK-FLCN^+ cells = details: 4×GI50 mithramycin, no rapamycin
Method: At the end of the time course, media was carefully removed and cells were fixed in 85% ice-cold ethanol. After removal of ethanol, cells were incubated in the dark at 37° C. for 20 minutes in PBS buffers containing 0.1% Triton X-100, 100 mg/mL RNase A and 10 mg/mL Propidium iodide (PI). The 96-well plates were subsequently scanned using the Acumen eX3 cytometer (TTP LabTech).

UOK257-FLCN^− cells = assay: Clonogenic cell survival assay in UOK257-FLCN^− cells
Method: The final concentration of DMSO in the medium was 1%. Four dishes with two seeding densities for each drug concentration were used and at least three experiments were carried out under each set of conditions. […] The cells were incubated for an additional 10-16 days until visible colonies appeared, which were fixed with Carnoy's fixative (methanol:acetic acid 3:1, v:v), and visualized by staining cells in sulphorhodamine B (0.4%). Colonies with over 30 cells were counted. […] Cell survival following drug exposure was expressed as % control cloning efficiency or survival.

CO[C@H](C(=O)[C@@H](O)[C@@H](C)O)C1Cc2cc3cc(OC4CC(OC5CC(O)C(O)C(C)O5)C(O)C(C)O4)c(C)c(O)c3c(O)c2C(=O)[C@H]1OC1CC(OC2CC(OC3CC(C)(O)C(O)C(C)O3)C(O)C(C)O2)C(O)C(C)O1 (stereo partly drawn) [mithramycin, Mithramycin]
active forms of cleaved caspase3 (Western blot) [1]: found at 100 and 200 nM, but not in low concentrations of mithramycin (25 and 50 nM)
cell survival (clonogenic), UOK257-FLCN^+ cells (UOK257-FLCN^+ cells; 200 nM): more than 85%
cells able to form colonies, UOK257-FLCN^+ cells (UOK257-FLCN^+ cells; 500 nM): more than 60%
cells survived (clonogenic), UOK257-FLCN^+ cells (UOK257-FLCN^+ cells; 5000 nM): more than 4%
fold greater growth inhibitory sensitivity in 786-O mutant VHL versus wt VHL [2]: ~3 fold
GI50 ([2]; Homo sapiens, 786-0, 72 h, read-out: GI50 in 786-O cells with mutant VHL): 117 ± 37 nM
GI50 [3]: 299 ± 17 nM
GI50 [4]: 38.7 ± 10.4 nM
GI50 ([4]; 72 hours): 38.7 ± 10.4 nM
GI50 [5]: 35.3 ± 7.3 nM
GI50 ([5]; 72 hours): 35.3 ± 7.3 nM
increase in S and G2-M phases (UOK-FLCN^+ cells): 15%
fold more cytotoxic to FLCN-null than FLCN-wild type UOK257 cells (clonogenic survival) (UOK257-FLCN^− cells; 200 nM where stated): ~10 fold
viable cells (clonogenic survival), UOK-257 cells without FLCN expression (UOK257-FLCN^− cells; 200 nM, 72 hrs exposure): less than 8%
cells survived (clonogenic), UOK257-FLCN^− cells (UOK257-FLCN^− cells; 500 nM, 72 hrs exposure): less than 0.1%
